# Results taken from patent publication US8604042B2, “Bi-aryl meta-pyrimidine inhibitors of kinases” (TargeGen, Inc., priority 2005, dated 2013).
# Where a name gives a salt, the structure may show the parent alone.
# Target: T1, recombinant JAK2 (Homo sapiens, UniProt O60674)
# T1 construct: purchased Upstate Cell Signaling Solutions
# Assay: IC50 value determinations for Jak2 kinase, luminescence-based kinase assay (Kinase-Glo)
# Assay type: biochemical
# T1 sequence (O60674 808-1132 limits assumed): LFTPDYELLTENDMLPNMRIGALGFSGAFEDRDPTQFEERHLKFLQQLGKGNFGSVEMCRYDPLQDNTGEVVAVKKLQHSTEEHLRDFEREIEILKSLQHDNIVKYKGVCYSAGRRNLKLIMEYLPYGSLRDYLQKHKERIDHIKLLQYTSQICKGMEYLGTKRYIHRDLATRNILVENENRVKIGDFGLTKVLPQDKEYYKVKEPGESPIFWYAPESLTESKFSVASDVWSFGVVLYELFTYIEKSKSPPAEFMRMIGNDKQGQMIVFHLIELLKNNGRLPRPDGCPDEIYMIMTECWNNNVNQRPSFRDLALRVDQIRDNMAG
IC50 (Table 1) [µM],"IC50 (Table 8, SAR of the P4 region) [µM]",SMILES
0.0354,–,"Cc1cnc(Nc2ccc(Cn3cncn3)cc2)nc1Nc1cccc(S(=O)(=O)NC(C)(C)C)c1 [N-tert-Butyl-3-[5-methyl-2-(4-[1,2,4]triazol-1-ylmethyl-phenylamino)-pyrimidin-4-ylamino]-benzenesulfonamide]"
0.00438,–,"Cc1cnc(Nc2ccc(OC3CCNCC3)cc2)nc1Nc1cccc(C)c1C [5-methyl-N4-(2,3-dimethylphenyl)-N2-(4-(piperidin-4-yloxy)phenyl)pyrimidine-2,4-diamine Hydrochloride]"
0.0123,–,Cc1cnc(Nc2ccc(-n3ccnc3)cc2)nc1Nc1cccc(S(=O)(=O)NC(C)(C)C)c1 [N-tert-Butyl-3-[2-(4-imidazol-1-yl-phenylamino)-5-methyl-pyrimidin-4-ylamino]-benzenesulfonamide]
0.00536,–,"Cc1cnc(Nc2ccc(N3CCN(C)CC3)cc2)nc1Nc1ccc(Cl)c2[nH]ccc12 [drawing 356, N4-(7-chloro-1H-indol-4-yl)-5-methyl-N2-(4-(4-methylpiperazin-1-yl)phenyl)pyrimidine-2,4-diamine]"
0.0234,–,"Cc1cnc(Nc2ccc(OCCN3CCCC3)cc2)nc1Nc1ccc(Cl)c(C(F)(F)F)c1 [N2-(4-(2-(pyrrolidin-1-yl)ethoxy)phenyl)-N4-(4-chloro-3-(trifluoromethyl)phenyl)-5-methylpyrimidine-2,4-diamine]"
0.0343,–,Cc1cnc(Nc2ccc(-n3ccnc3C)cc2)nc1Nc1cccc(S(=O)(=O)NC(C)(C)C)c1 [N-tert-Butyl-3-{5-methyl-2-[4-(2-methyl-imidazol-1-yl)-phenylamino]-pyrimidin-4-ylamino}-benzenesulfonamide]
0.0161,–,CNS(=O)(=O)c1cccc(Nc2nc(Nc3ccc(N4CCN(C)CC4)cc3)ncc2C)c1 [N-Methyl-3-{5-methyl-2-[4-(4-methyl-piperazin-1-yl)-phenylamino]-pyrimidin-4-ylamino}-benzenesulfonamide]
0.257,–,CNC(=O)c1cccc(Nc2nc(Nc3ccc(OCCN4CCCC4)cc3)ncc2C)c1 [N-Methyl-3-{5-methyl-2-[4-(2-pyrrolidin-1-yl-ethoxy)-phenylamino]-pyrimidin-4-ylamino}-benzamide]
0.0807,–,Cc1cnc(Nc2ccc(Cc3ccncc3)cc2)nc1Nc1cccc(S(=O)(=O)NC(C)(C)C)c1 [N-tert-Butyl-3-[5-methyl-2-(4-pyridin-4-ylmethyl-phenylamino)-pyrimidin-4-ylamino]-benzenesulfonamide]
0.0722,–,Cc1cnc(Nc2ccc(OCCN3CCCC3)cc2)nc1Nc1cccc(S(N)(=O)=O)c1 [3-{5-Methyl-2-[4-(2-pyrrolidin-1-yl-ethoxy)-phenylamino]-pyrimidin-4-ylamino}-benzenesulfonamide]
0.0197,–,"Cc1cnc(Nc2ccc(OCCN3CCCC3)cc2)nc1Nc1cccc(N(C)C)c1 [N4-(3-Dimethylamino-phenyl)-5-methyl-N2-[4-(2-pyrrolidin-1-yl-ethoxy)-phenyl]-pyrimidine-2,4-diamine]"
2.04,–,"COc1cc(Nc2nc(Nc3cccc(OCCN4CCCC4)c3)ncc2C)c(Cl)cc1Cl [drawing 300, N4-(2,4-Dichloro-5-methoxy-phenyl)-5-methyl-N2-[3-(2-pyrrolidin-1-yl-ethoxy)-phenyl]-pyrimidine-2,4-diamine]"
0.0152,–,"COc1cc(Nc2nc(Nc3ccc(CN4CCNCC4)cc3)ncc2C)ccc1Cl [N4-(4-Chloro-3-methoxy-phenyl)-5-methyl-N2-(4-piperazin-1-ylmethyl-phenyl)-pyrimidine-2,4-diamine]"
0.0158,–,"COc1cc(Nc2nc(Nc3cccc(CN4CCNCC4)c3)ncc2C)ccc1Cl [N4-(4-Chloro-3-methoxy-phenyl)-5-methyl-N2-(3-piperazin-1-ylmethyl-phenyl)-pyrimidine-2,4-diamine]"
0.0636,–,Cc1cnc(Nc2ccc(N3CCN(C)CC3)cc2)nc1Nc1cccc(NC(=O)Nc2ccccc2)c1 [1-(3-{5-Methyl-2-[4-(4-methyl-piperazin-1-yl)-phenylamino]-pyrimidin-4-ylamino}-phenyl)-3-phenyl-urea]
0.00709,–,Cc1cnc(Nc2ccc(N3CCN(CCO)CC3)cc2)nc1Nc1cccc(S(=O)(=O)NC(C)(C)C)c1 [N-tert-Butyl-3-(2-{4-[4-(2-hydroxy-ethyl)-piperazin-1-yl]-phenylamino)-[5-methyl-pyrimidin-4-ylamino]-benzenesulfonamide Hydrochloride]
0.00934,–,"COc1cc(Nc2ncc(C)c(Nc3cccc4c3OCO4)n2)ccc1OCCN1CCCC1 [N4-Benzo[1,3]dioxol-4-yl-N2-[3-methoxy-4-(2-pyrrolidin-1-yl-ethoxy)-phenyl]-5-methyl-pyrimidine-2,4-diamine]"
0.038,–,"Cc1cnc(Nc2ccc(N3CCN(C)CC3)cc2)nc1Nc1cc(C)c(Cl)c(C)c1 [drawing 361, N4-(4-chloro-3,5-dimethylphenyl)-5-methyl-N2-(4-(4-methylpiperazin-1-yl)phenyi)pyrimidine-2,4-diamine Hydrochloride]"
0.0219,–,Cc1cnc(Nc2ccc(Cn3ccnc3C)cc2)nc1Nc1cccc(S(=O)(=O)NC(C)(C)C)c1 [N-tert-Butyl-3-{5-methyl-2-[4-(2-methyl-imidazol-1-ylmethyl)-phenylamino]-pyrimidin-4-ylamino}-benzenesulfonamide]

IC50 (Table 1) [µM],"IC50 (Table 8, SAR of the P4 region) [µM]",SMILES
0.0394,–,Cc1cnc(Nc2ccc(N3CCN(C)CC3)cc2)nc1Nc1cccc(S(=O)(=O)NC2CCCCC2)c1 [N-Cyclohexyl-3-{5-methyl-2-[4-(4-methyl-piperazin-1-yl)-phenylamino)-pyrimidin-4-ylamino}-benzenesulfonamide]
0.0133,–,"COc1cc(Nc2nc(Nc3ccc(CN4CCOCC4)cc3)ncc2C)ccc1Cl [N4-(4-Chloro-3-methoxy-phenyl)-5-methyl-N2-(4-morpholin-4-ylmethyl-phenyl)-pyrimidine-2,4-diamine trifluoroacetate]"
0.215,–,"Cc1cnc(Nc2ccc(N3CCN(C)CC3)cc2)nc1Nc1cccc(S(C)(=O)=O)c1 [5-methyl-N2-(4-(4-methylpiperazin-1-yl)phenyl)-N4-(3-(methylsulfonyl)phenyl) pyrimidine-2,4-diamine]"
0.0136,–,Cc1cnc(Nc2ccc(N3CCN(C)CC3)cc2)nc1Nc1cccc(S(N)(=O)=O)c1 [3-{5-Methyl-2-[4-(4-methyl-piperazin-1-yl)-phenylamino]-pyrimidin-4-ylamino}-benzenesulfonamide]
0.0257,–,"Cc1cnc(Nc2ccc(OCCN3CCCC3)cc2)nc1Nc1ccc(Cl)c(Cl)c1 [N4-(3,4-Dichloro-phenyl)-5-methyl-N2-[4-(2-pyrrolidin-1-yl-ethoxy)-phenyl]-pyrimidine-2,4-diamine]"
3.62,–,O=S(=O)(NCCN1CCCC1)c1ccc(Nc2nccc(Nc3cccc(O)c3)n2)cc1 [4-[4-(3-Hydroxy-phenylamino)-pyrimidin-2-ylamino]-N-(2-pyrrolidin-1-yl-ethyl)-benzenesulfonamide trifluoroacetate]
0.0166,–,"Cc1ccc(Nc2nc(Nc3ccc(N4CCN(C)CC4)cc3)ncc2C)cc1C [drawing 459, 5-methyl-N4-(3,4-dimeihylphenyl)-N2-(4-(4-methylpiperazin-1-yl)phenyl)pyrimidine-2,4-diamine Hydrochloride]"
0.0148,–,"COc1cc(Nc2nc(Nc3ccc(OCCN4CCCC4)cc3)ncc2C)ccc1F [N4-(4-Fluoro-3-methoxy-phenyl)-5-methyl-N2-[4-(2-pyrrolidin-1-yl-ethoxy)-phenyl]-pyrimidine-2,4-diamine]"
0.00796,–,"COc1cc(Nc2nc(Nc3ccc(OCCN4CCCC4)cc3)ncc2C)ccc1Cl [drawing 311, N4-(4-Chloro-3-methoxy-phenyl)-5-methyl-N2-[4-(2-pyrrolidin-1-yl-ethoxy)-phenyl]-pyrimidine-2,4-diamine]"
0.153,–,"Cc1cnc(Nc2nc(Nc3ccc(OCCN4CCCC4)cc3)ncc2C)nc1Nc1cccc(C(C)(C)C)c1 [N2-(4-(2-(pyrrolidin-1-yl)ethoxy)phenyl)-N4-(4-(3-tert-butylphenylamino)-5-methylpyrimidin-2-yl)-5-methylpyrimidine-2,4-diamine Hydrochloride]"
0.638,–,COc1cccc(Nc2ccnc(Nc3ccc(S(=O)(=O)NCCN4CCCC4)cc3)n2)c1 [4-[4-(3-Methoxy-phenylamino)-pyrimidin-2-ylamino]-N-(2-pyrrolidin-1-yl-ethyl)-benzenesulfonamide trifluoroacetate]
0.0203,–,Cc1cnc(Nc2ccc(OCCO)cc2)nc1Nc1cccc(S(=O)(=O)NC(C)(C)C)c1 [N-tert-Butyl-3-{2-[4-(2-hydroxy-ethoxy)-phenylamino]-5-methyl-pyrimidin-4-ylamino)-benzenesulfonamide]
0.137,–,CC(=O)Nc1cccc(Nc2nc(Nc3ccc(OC4CCNCC4)cc3)ncc2C)c1 [N-(3-{5-Methyl-2-[4-(piperidin-4-yloxy)-phenylamino]-pyrimidin-4-ylamino}-phenyl)-acetamide]
0.0559,–,Cc1cnc(Nc2cccc(-c3nnn[nH]3)c2)nc1Nc1cccc(S(=O)(=O)NC(C)(C)C)c1 [N-tert-Butyl-3-{5-methyl-2-[3-(1H-tetrazol-5-yl)-phenylamino]-pyrimidin-4-ylamino}-benzenesulfonamide]
0.0046,–,Cc1cnc(Nc2ccc(CN3CCNCC3)cc2)nc1Nc1cccc(S(=O)(=O)NC(C)(C)C)c1 [N-tert-butyl-3-[(5-methyl-2-{[4-(piperazin-1-ylmethyl)phenyl]amino}pyrimidin-4-yl)amino]benzenesulfonamide]
0.89,–,Cc1cnc(Nc2ccc(N3CCN(C)CC3)cc2)nc1Nc1cccc(C(=O)NC(C)(C)C)c1 [N-tert-Butyl-3-{5-methyl-2-[4-(4-methyl-piperazin-1-yl)-phenylamino]-pyrimidin-4-ylamino}-benzamide]
–,0.012,Cc1cnc(Nc2ccc(N3CCN(C)CC3)cc2)nc1Nc1cc(C)c(Cl)c(C)c1 [Compound 38]
0.0882,–,Cc1ccc(Nc2nc(Nc3ccc(-n4ccnc4)cc3)ncc2C)cc1S(=O)(=O)NC(C)(C)C [N-tert-Butyl-5-[2-(4-imidazol-1-yl-phenylamino)-5-methyl-pyrimidin-4-ylamino]-2-methyl-benzenesulfonamide]
4.33,–,"COc1ccc(Nc2ccnc(Nc3ccc(OCCN4CCCC4)cc3)n2)cc1 [N4-(4-Methoxy-phenyl)-N2-[4-(2-pyrrolidin-1-yl-ethoxy)-phenyl]-pyrimidine-2,4-diamine trifluoroacetate]"
